# Assay results as given in patent US6353022B1, “Compositions containing hydroxyeicosatetraenoic acid derivatives and methods of use in treating dry eye disorders” (Alcon Universal Ltd., priority 1999, dated 2002).
# Tested on: corneal injury induced by dry eye conditions
# Experiment: in vivo desiccation model of dry eye (methylene blue corneal staining, absorbance at 660 nm)
# Design: species or system rabbit
# Settings: 15(S)-HETE 1 μM (0.000034% w/v), 50 μL topical O.D., 4-hour desiccation
# Protocol: A composition of the present invention (Example 1, with the compound of formula (III) being 15(S)-HETE) was compared to an analogous composition without ethanol, an analogous composition without 15(S)-HETE, and analogous compositions with approximately one-half, one-tenth, and twice the amount of ethanol, respectively, in an in vivo desiccation model of dry eye.
# Briefly, the assay was performed by first anesthetizing the animals with ketamine/xylazine/glycopyrrolate. The O.S. eye was lubricated with DuraTears® and remained taped shut throughout the experiment. The O.D. eye was then dosed with 50 μL of test composition (Example 1) or 50 μL of the same composition without ethanol and the eye taped shut for 10 minutes. The tape was then removed, the eyelids opened and a speculum was inserted into the eye. The eye was held open with the speculum for a period of 4 hours. During this time, the animals were monitored every 15 minutes and supplemental injections of ketamine/xylazine (at half the initial dose/injection) were administered as needed to maintain anesthesia. At the end of the 4-hour period, 2 sutures were placed in the upper eyelid and 1 suture was placed in the lower eyelid. A corneal/conjunctival cup was formed by using the sutures to lift the eyelids upward and the sutures taped to a stand. 1 mL methylene blue (1% solution in water) was added to the conjunctival cup and the cornea was stained with the solution for 5 minutes. The eye was then washed with 200 mL of a balanced salt solution. Corneal thickness was determined by non-invasive pachymetry. Three readings were taken for each animal. Corneal staining score was obtained by visualizing the cornea with a slit-lamp and determining the percentage of the cornea that was stained with methylene blue. A photograph was taken using the slit-lamp machine. The rabbit was then euthanized immediately by intravenous injection of Sleepaway® solution and the eye was excised. The cornea was isolated and an 8 mm punch of the central cornea collected. This corneal punch was placed in a small glass vial containing 2 mL acetone/saturated sodium sulfate (7:3, vol/vol). Absorbance of the extracted solution was measured at 660 nm with a spectrophotometer.
# The naïve control animals were anesthetized with ketamine/xylazine/glycopyrrolate and the O.S. eye lubricated and taped shut. Sutures were immediately placed in the O.D. eyelids. The corneal cup was formed and the cornea was stained with methylene blue, washed with a balanced salt solution and collected, as described above. The data were converted to “percent protection” by subtracting from 1, the quotient of the test sample absorbances divided by the average of control sample absorbance, and multiplying by 100. The results are contained in Table 1 and illustrated in FIGS. 1 and 2: […]
smiles,measurement,setting,value
"CCCCC[C@H](O)/C=C/C=C\C/C=C\C/C=C\CCCC(=O)O [15(S)-HETE, 5,8,11,13-Eicosatetraenoic acid, 15-hydroxy-, [15S-(5Z,8Z,11Z,13E)]-]",% Protection,Ethanol 0.0 % (w/v),13%
same,% Protection,Ethanol 0.00505 % (w/v),2%
same,% Protection,"Ethanol 0.0252 % (w/v), p < 0.05 versus control",42%
same,% Protection,"Ethanol 0.0505 % (w/v) (composition of Example 1), p < 0.05 versus control",60%
same,% Protection,Ethanol 0.101 % (w/v),31%
